± gives the expanded uncertainty stated by the source.
Tests used:
[1] = 101 kPa, Liquid; for speed of sound: Linear variable-path acoustic interferometer; for mass density: Vibrating tube method
[2] = xn = mol fraction of the nth substance listed; settings: 101 kPa, Liquid, x2 = 0; for speed of sound: Linear variable-path acoustic interferometer; for mass density: Vibrating tube method

c1ccccc1 [benzene]
[1]
Settings	mass density [kg/m3]	speed of sound [m/s]
293.15 K	878.95 ± 0.08	1322.7 ± 1.4
298.15 K	873.61 ± 0.08	1299.3 ± 1.4
303.15 K	868.25 ± 0.08	1276 ± 1.4
308.15 K	862.88 ± 0.09	1252.8 ± 1.4
313.15 K	857.48 ± 0.09	1229.8 ± 1.3
318.15 K	852.08 ± 0.09	1207 ± 1.3
323.15 K	846.65 ± 0.09	1184.5 ± 1.3

c1ccccc1 [benzene] + NC1CCCCC1
[2]
Settings	mass density [kg/m3]	speed of sound [m/s]
293.15 K	878.95 ± 0.08	1322.7 ± 1.4
298.15 K	873.61 ± 0.08	1299.3 ± 1.4
303.15 K	868.25 ± 0.08	1276 ± 1.4
308.15 K	862.88 ± 0.09	1252.8 ± 1.4
313.15 K	857.48 ± 0.09	1229.8 ± 1.3
318.15 K	852.08 ± 0.09	1207 ± 1.3
323.15 K	846.65 ± 0.09	1184.5 ± 1.3

C1CCCCC1 [cyclohexane]
[1]
Settings	mass density [kg/m3]	speed of sound [m/s]
293.15 K	778.55 ± 0.12	1278.6 ± 1.4
298.15 K	773.84 ± 0.12	1253.9 ± 1.4
303.15 K	769.11 ± 0.12	1229.3 ± 1.3
308.15 K	764.35 ± 0.12	1205.1 ± 1.3
313.15 K	759.56 ± 0.13	1181 ± 1.3
318.15 K	754.74 ± 0.13	1157.3 ± 1.3
323.15 K	749.89 ± 0.13	1133.7 ± 1.3

C1CCCCC1 [cyclohexane] + NC1CCCCC1
[2]
Settings	mass density [kg/m3]	speed of sound [m/s]
293.15 K	778.55 ± 0.12	1278.6 ± 1.4
298.15 K	773.84 ± 0.12	1253.9 ± 1.4
303.15 K	769.11 ± 0.12	1229.3 ± 1.3
308.15 K	764.35 ± 0.12	1205.1 ± 1.3
313.15 K	759.56 ± 0.13	1181 ± 1.3
318.15 K	754.74 ± 0.13	1157.3 ± 1.3
323.15 K	749.89 ± 0.13	1133.7 ± 1.3

NC1CCCCC1 [cyclohexylamine]
[1]
Settings	mass density [kg/m3]	speed of sound [m/s]
293.15 K	867.39 ± 0.12	1430.5 ± 1.6
298.15 K	862.85 ± 0.12	1408.8 ± 1.6
303.15 K	858.31 ± 0.12	1387.3 ± 1.5
308.15 K	853.76 ± 0.12	1366 ± 1.5
313.15 K	849.23 ± 0.13	1344.5 ± 1.5
318.15 K	844.68 ± 0.13	1323.1 ± 1.5
323.15 K	840.14 ± 0.13	1301.8 ± 1.5
